Measured values: paper PMC6611227 (Frontiers in Microbiology, 2019)

Target: T1, StDHODH (dihydroorotate dehydrogenase) (Solanum tuberosum, UniProt M1BCR0, I273V/I299V/P120T/P359Q)
T1 construct: gene LOC102578881
T1 sequence (M1BCR0 70-460 P120T/I273V/I299V/P359Q): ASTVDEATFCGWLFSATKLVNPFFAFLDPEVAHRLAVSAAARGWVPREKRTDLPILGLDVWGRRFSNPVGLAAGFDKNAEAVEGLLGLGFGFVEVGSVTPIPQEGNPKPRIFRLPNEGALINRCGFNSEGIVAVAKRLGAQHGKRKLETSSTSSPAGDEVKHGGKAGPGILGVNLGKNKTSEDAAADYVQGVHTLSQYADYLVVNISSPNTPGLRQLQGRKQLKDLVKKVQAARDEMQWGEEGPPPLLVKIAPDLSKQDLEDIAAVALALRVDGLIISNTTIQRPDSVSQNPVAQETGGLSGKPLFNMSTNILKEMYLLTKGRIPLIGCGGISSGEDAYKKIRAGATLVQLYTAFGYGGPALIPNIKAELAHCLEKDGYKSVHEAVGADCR
Test: biochemical
Details: read-out: Activity % StDHODH

For COc1c(-c2ccccc2)ccc(NC(=O)C(C#N)=C(C)O)c1Cl [compound 19, N-(3-chloro-2-methoxybiphenyl-4-yl)-2-cyano-3-hydroxybut-2-enamide], which activity at 500 µM is on record?
Its activity at 500 µM is 0%.
